Earlier results in US10611818B2, “MHC multimers in tuberculosis diagnostics, vaccine and therapeutics” (priority 2007, dated 2020).

System: T2 cells
Conditions: CD8 T-cell clones 8, 9, 10, 11 and 12

GLQHWVPEL [BA4697-105, irrelevant peptide used to load T2 target cells]
lysis of T2 cells pulsed with peptide: without killing
